From BindingDB's records for doi:10.1016/0960-894X(96)00438-6 (1996)
pIC50: −log10 of the molar value.

experiment: In vitro inhibition of thrombin-induced human gel-filtered platelet aggregation.

SMILES	pIC50
CC(CNC(=O)C1CCCN(C(=O)CCC2CCNCC2)C1)C(=O)O (stereo not given) [2-Methyl-3-{[1-(3-piperidin-4-yl-propionyl)-piperidine-3-carbonyl]-amino}-propionic acid]	< 5.00
O=C(NCCc1nnn[nH]1)C1CCCN(C(=O)CCC2CCNCC2)C1 (stereo not given) [1-(3-Piperidin-4-yl-propionyl)-piperidine-3-carboxylic acid [2-(1H-tetrazol-5-yl)-ethyl]-amide]	4.40
CN(CCC(=O)O)C(=O)C1CCCN(C(=O)CCC2CCNCC2)C1 (stereo not given) [3-{Methyl-[1-(3-piperidin-4-yl-propionyl)-piperidine-3-carbonyl]-amino}-propionic acid]	4.55
O=C(O)C1CCCC(NC(=O)C2CCCN(C(=O)CCC3CCNCC3)C2)C1 (stereo not given) [3-{[1-(3-Piperidin-4-yl-propionyl)-piperidine-3-carbonyl]-amino}-cyclohexanecarboxylic acid]	< 4.30
O=C(O)CCNC(=O)C1CCCN(C(=O)OCC2CCNCC2)C1 (stereo not given) [3-(2-Carboxy-ethylcarbamoyl)-piperidine-1-carboxylic acid piperidin-4-ylmethyl ester]	5.30

These reach a higher pIC50. Values come first.

pIC50	SMILES
7.70	O=C(O)C[C@H](NC(=O)[C@@H]1CCCN(C(=O)CCC2CCNCC2)C1)c1ccc2c(c1)OCO2 [(S)-3-Benzo[1,3]dioxol-5-yl-3-{[(R)-1-(3-piperidin-4-yl-propionyl)-piperidine-3-carbonyl]-amino}-propionic acid]
7.05	O=C(O)C[C@H](NC(=O)[C@@H]1CCCN(C(=O)CCC2CCNCC2)C1)c1cccs1 [(S)-3-{[(R)-1-(3-Piperidin-4-yl-propionyl)-piperidine-3-carbonyl]-amino}-3-thiophen-2-yl-propionic acid]
6.10	O=C(O)C(O)CNC(=O)[C@@H]1CCCN(C(=O)CCC2CCNCC2)C1 (stereo partly drawn) [2-Hydroxy-3-{[(R)-1-(3-piperidin-4-yl-propionyl)-piperidine-3-carbonyl]-amino}-propionic acid]
6.00	COC(=O)C(CC(=O)O)NC(=O)C1CCCN(C(=O)CCC2CCNCC2)C1 (stereo not given) [2-{[1-(3-Piperidin-4-yl-propionyl)-piperidine-3-carbonyl]-amino}-succinic acid 1-methyl ester]
7.10	O=C(O)C[C@@H](C#Cc1ccccc1)NC(=O)[C@@H]1CCCN(C(=O)CCC2CCNCC2)C1 [(S)-5-Phenyl-3-{[(R)-1-(3-piperidin-4-yl-propionyl)-piperidine-3-carbonyl]-amino}-pent-4-ynoic acid]
